According to the NIST ThermoML archive (doi:10.1021/acs.jced.7b00321):

Experiment: xn = mol fraction of the nth substance listed
Details: 101 kPa, Liquid; for viscosity: Capillary tube (Ostwald / Ubbelohde) method; for mass density: Vibrating tube method

CC(O)CN (stereo not drawn) [1-amino-2-propanol] + CCO
Details	mass density, 293.15 K [kg/m3]	mass density, 303.15 K [kg/m3]	mass density, 313.15 K [kg/m3]	mass density, 323.15 K [kg/m3]	viscosity, 293.15 K [mPa·s]	viscosity, 303.15 K [mPa·s]	viscosity, 313.15 K [mPa·s]	viscosity, 323.15 K [mPa·s]
x1 = 0.1009	815.54	807.78	798.04	790.57	1.69	1.35	1.1	0.9
x1 = 0.2	839.35	830.91	821.03	813.16	2.38	1.83	1.45	1.16
x1 = 0.3015	860.99	852.05	842.37	834.09	3.39	2.51	1.91	1.49
x1 = 0.3999	879.64	870.63	860.91	852.56	4.74	3.38	2.49	1.89
x1 = 0.4999	896.77	887.58	878.08	869.65	6.61	4.53	3.23	2.39
x1 = 0.5992	912.21	903.08	893.58	885.11	9.15	6.04	4.17	3.01
x1 = 0.6996	926.22	917.08	907.84	899.63	12.64	8.01	5.35	3.76
x1 = 0.7998	938.83	929.86	921.21	912.9	17.3	10.53	6.84	4.7
x1 = 0.8995	950.36	941.55	933.29	924.97	23.42	13.8	8.64	5.75

NCCCO [3-amino-1-propanol] + CCO
Details	mass density, 293.15 K [kg/m3]	mass density, 303.15 K [kg/m3]	mass density, 313.15 K [kg/m3]	mass density, 323.15 K [kg/m3]	viscosity, 293.15 K [mPa·s]	viscosity, 303.15 K [mPa·s]	viscosity, 313.15 K [mPa·s]	viscosity, 323.15 K [mPa·s]
x1 = 0.101	820.04	812.33	802.78	795.11	1.77	1.41	1.18	0.97
x1 = 0.2008	847.98	839.91	830.23	822.21	2.7	2.05	1.63	1.32
x1 = 0.3001	871.99	863.77	854.17	846.08	4.06	2.97	2.29	1.79
x1 = 0.4006	894.28	885.95	876.32	867.97	6.22	4.43	3.25	2.49
x1 = 0.4999	914.13	905.74	896.28	887.91	9.34	6.31	4.53	3.33
x1 = 0.5994	932.46	923.63	914.45	906.05	13.88	8.89	6.17	4.35
x1 = 0.6993	948.72	940.08	931.32	922.79	19.55	12.09	8.08	5.52
x1 = 0.7999	963.35	954.73	946.49	938.29	26.29	15.91	10.18	6.82
x1 = 0.8998	975.98	967.76	959.83	951.35	32.9	19.96	12.86	8.29

NCCNCCO [N-(2-aminoethyl)ethanolamine] + CCO
Details	mass density, 293.15 K [kg/m3]	mass density, 303.15 K [kg/m3]	mass density, 313.15 K [kg/m3]	mass density, 323.15 K [kg/m3]	viscosity, 293.15 K [mPa·s]	viscosity, 303.15 K [mPa·s]	viscosity, 313.15 K [mPa·s]	viscosity, 323.15 K [mPa·s]
x1 = 0.1003	836.01	827.72	817.72	810.06	2.27	1.78	1.41	1.13
x1 = 0.2	876.03	866.47	856.04	847.84	4.21	3.09	2.35	1.79
x1 = 0.3	908.63	898.53	888.11	880.03	8.22	5.37	3.76	2.74
x1 = 0.4	935.65	925.07	915.04	906.65	14.62	9.08	6.08	4.22
x1 = 0.4997	957.92	947.38	937.71	929.72	24.18	14.41	9.37	6.19
x1 = 0.5996	976.58	966.68	957.44	949.14	36.92	21.51	13.45	8.75
x1 = 0.6992	992.84	983.3	974.42	966.36	55.46	31.16	18.74	11.65
x1 = 0.7994	1007.09	997.81	989.49	981.48	78.97	42.47	24.16	14.94
x1 = 0.9007	1019.25	1010.53	1002.88	995.08	107.09	56.14	31.76	18.8

NCCNCCN [di(2-aminoethyl)amine] + CCO
Details	mass density, 293.15 K [kg/m3]	mass density, 303.15 K [kg/m3]	mass density, 313.15 K [kg/m3]	mass density, 323.15 K [kg/m3]	viscosity, 293.15 K [mPa·s]	viscosity, 303.15 K [mPa·s]	viscosity, 313.15 K [mPa·s]	viscosity, 323.15 K [mPa·s]
x1 = 0.1	831.18	820.88	809.43	800.56	2.38	1.82	1.43	1.16
x1 = 0.1999	864.18	852.13	839.06	828.38	3.4	2.52	1.95	1.54
x1 = 0.3001	888.74	875.32	862.26	849.95	4.31	3.11	2.33	1.81
x1 = 0.4	905.98	892.48	879.84	866.96	5.06	3.57	2.64	2.03
x1 = 0.4998	918.77	905.55	893.25	881.28	5.59	3.93	2.89	2.2
x1 = 0.6001	928.75	915.84	904.57	892.92	6.05	4.19	3.06	2.31
x1 = 0.6992	936.55	924.86	913.73	903.03	6.39	4.38	3.15	2.37
x1 = 0.7998	943.08	931.95	921.49	911.41	6.61	4.53	3.26	2.45
x1 = 0.9007	948.15	937.76	928.32	918.94	6.8	4.65	3.31	2.5
